Assay results reported in the NIST ThermoML archive (doi:10.1016/j.jct.2018.12.025).

Experiment: relative permittivity at various frequencies (dimensionless)
Settings: 96.5 kPa, Liquid, Frequency=1 MHz, Parallel plate capacitor

O [water]
Settings	relative permittivity
298.15 K	79.68
308.15 K	75.51
318.15 K	71.42
328.15 K	68.44
338.15 K	64.51
348.15 K	60.78
